Legend:
[1] = target: T1, GABA-A receptor; alpha-1/beta-2/gamma-2 (Homo sapiens, UniProt P14867+P18507+P47870); assay: Potentiation of GABA responses at human Gamma-aminobutyric acid A receptor alpha-1-beta-2-gamma-2; assay type: protein-complex assay
T1 sequence (P14867 whole entry): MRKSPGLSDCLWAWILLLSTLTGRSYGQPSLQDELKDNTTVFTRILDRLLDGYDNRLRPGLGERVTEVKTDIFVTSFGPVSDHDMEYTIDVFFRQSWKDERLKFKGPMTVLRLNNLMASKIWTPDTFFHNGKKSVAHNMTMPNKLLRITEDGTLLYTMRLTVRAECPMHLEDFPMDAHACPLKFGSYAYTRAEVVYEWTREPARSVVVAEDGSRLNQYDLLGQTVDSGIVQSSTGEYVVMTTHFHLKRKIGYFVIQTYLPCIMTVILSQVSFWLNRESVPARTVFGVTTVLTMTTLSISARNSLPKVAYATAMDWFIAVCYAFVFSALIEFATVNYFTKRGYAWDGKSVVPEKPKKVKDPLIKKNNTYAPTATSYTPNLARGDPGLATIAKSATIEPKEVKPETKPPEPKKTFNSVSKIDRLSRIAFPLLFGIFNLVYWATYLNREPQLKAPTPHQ
T1 sequence (P47870 whole entry): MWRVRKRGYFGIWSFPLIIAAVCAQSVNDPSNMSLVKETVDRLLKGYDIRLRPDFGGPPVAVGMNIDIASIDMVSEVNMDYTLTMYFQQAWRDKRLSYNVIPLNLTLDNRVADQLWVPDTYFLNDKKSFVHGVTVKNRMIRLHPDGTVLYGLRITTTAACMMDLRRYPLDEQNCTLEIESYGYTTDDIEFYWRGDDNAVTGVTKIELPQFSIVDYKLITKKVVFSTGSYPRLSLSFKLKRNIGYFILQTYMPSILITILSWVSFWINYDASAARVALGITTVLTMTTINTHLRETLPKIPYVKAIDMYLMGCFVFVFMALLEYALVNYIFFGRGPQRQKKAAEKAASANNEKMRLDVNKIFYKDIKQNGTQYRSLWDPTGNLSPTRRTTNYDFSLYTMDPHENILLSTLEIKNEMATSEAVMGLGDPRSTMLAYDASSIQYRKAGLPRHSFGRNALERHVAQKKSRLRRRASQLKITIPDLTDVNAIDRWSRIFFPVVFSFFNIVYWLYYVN
T1 sequence (P18507 whole entry): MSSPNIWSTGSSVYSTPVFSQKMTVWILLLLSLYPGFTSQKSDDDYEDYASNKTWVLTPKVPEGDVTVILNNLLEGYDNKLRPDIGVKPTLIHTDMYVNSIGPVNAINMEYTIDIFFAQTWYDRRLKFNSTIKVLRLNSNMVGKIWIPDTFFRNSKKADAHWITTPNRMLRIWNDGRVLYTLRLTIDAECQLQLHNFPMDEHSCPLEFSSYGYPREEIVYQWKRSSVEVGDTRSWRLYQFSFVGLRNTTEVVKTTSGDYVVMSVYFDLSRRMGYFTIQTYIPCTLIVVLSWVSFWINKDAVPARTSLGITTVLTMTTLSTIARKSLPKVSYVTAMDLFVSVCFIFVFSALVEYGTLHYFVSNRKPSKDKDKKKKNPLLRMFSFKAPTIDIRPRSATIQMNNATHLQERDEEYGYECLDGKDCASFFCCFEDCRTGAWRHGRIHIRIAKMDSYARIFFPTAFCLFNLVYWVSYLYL

[2] = system: Xenopus laevis; assay: Loss of righting reflex (LORR) in tadpoles was determined for anesthetic activity; assay type: functional, organism-based, frog; conditions: Tadpole
[3] = target: T1, GABA-A receptor; alpha-1/beta-2/gamma-2; assay: Direct activation of human Gamma-aminobutyric acid A receptor alpha-1-beta-2-gamma-2; assay type: protein-complex assay
[4] = system: Xenopus laevis; assay: Loss of righting reflex (LORR) in Xenopus laevis tadpoles was determined for anesthetic activity; assay type: functional, organism-based, frog; conditions: Tadpole

| SMILES | EC50 [1] [µM] | EC50 [2] [µM] | EC50 [3] [µM] | EC50 [4] [µM] |
| --- | --- | --- | --- | --- |
| Cc1cccc(C)c1O | 126 | 63.1 | 200 |  |
| COc1cccc(OC)c1O [SYRINGOL] | 100000 |  |  |  |
| Oc1ccccc1C1CCCC1 | 100000 |  |  |  |
| CC(C)(C)c1cc(O)cc(C(C)(C)C)c1 | 100 | 100 | 501 |  |
| CCc1cccc(CC)c1O | 12.6 | 20 | 126 |  |
| CC(C)Cc1cccc(CC(C)C)c1O | 2.51 | 0.398 | 20 |  |
| CC(C)c1cccc(C(C)C)c1O [PROPOFOL] | 2 | 2 | 10 |  |
| CC(C)c1cc(O)c(O)c(C(C)C)c1 | 39.8 | 50.1 | 200 |  |
| CCc1cccc(CC)c1N=C=S | 15.8 | 158 | 316 |  |
| CC(C)c1ccccc1O | 39.8 | 126 | 158 |  |
| CC(C)c1cc(I)cc(C(C)C)c1O | 10 |  | 31.6 | 2.51 |
| Cc1cccc(C(C)(C)C)c1O | 0.501 | 31.6 | 20 |  |
| Oc1c(C2CCCCC2)cccc1C1CCCCC1 | 100000 |  |  |  |
| CCc1cccc(CC)c1N=C=O | 25.1 | 158 | 251 |  |
| Oc1ccccc1 [PHENOL] | 1000 | 1580 |  |  |
| CCc1cccc(CC)c1Br | 20 | 158 | 126 |  |
